Laboratory results from ChEMBL document CHEMBL1122819, “Quinazoline antifolates inhibiting thymidylate synthase: variation of the N10 substituent” (J Med Chem, 1985).

The compounds below were run on L1210 (assay: (§1) Growth inhibition was evaluated for L1210 cells in culture). Settings: not given.
Assay type: functional, Mus musculus

Structure (SMILES) | Inhibition
N#CCCCN(Cc1ccc2nc(N)nc(O)c2c1)c1ccc(C(=O)NC(CCC(=O)O)C(=O)O)cc1 (stereo not given) | 10%

These compounds were tested on L1210 (assay: as §1). Settings: Mus musculus, read-out: ID50 (the source's name).
Assay type: functional

Structure (SMILES) | IC50
Nc1nc(O)c2cc(CN(Cc3cccc(F)c3)c3ccc(C(=O)NC(CCC(=O)O)C(=O)O)cc3)ccc2n1 (stereo not given) | > 200 µM
N#CCN(Cc1ccc2nc(N)nc(O)c2c1)c1ccc(C(=O)NC(CCC(=O)O)C(=O)O)cc1 (stereo not given) | 5 µM
CC(C)N(Cc1ccc2nc(N)nc(O)c2c1)c1ccc(C(=O)NC(CCC(=O)O)C(=O)O)cc1 (stereo not given) | 400 µM
C#CCN(Cc1ccc2[nH]c(N)nc(=O)c2c1)c1ccc(C(=O)NC(CCC(=O)O)C(=O)O)cc1 (stereo not given) | 5 µM
Nc1nc(O)c2cc(CN(CC(=O)O)c3ccc(C(=O)NC(CCC(=O)O)C(=O)O)cc3)ccc2n1 (stereo not given) | 27 µM
Nc1nc(O)c2cc(CN(CCC(=O)O)c3ccc(C(=O)NC(CCC(=O)O)C(=O)O)cc3)ccc2n1 (stereo not given) | > 270 µM
Nc1nc(O)c2cc(CN(CC3CC3)c3ccc(C(=O)NC(CCC(=O)O)C(=O)O)cc3)ccc2n1 (stereo not given) | > 100 µM
Nc1nc(O)c2cc(CN(CC(=O)c3ccccc3)c3ccc(C(=O)NC(CCC(=O)O)C(=O)O)cc3)ccc2n1 (stereo not given) | 100 µM
Nc1nc(O)c2cc(CN(Cc3cnc(O)nc3O)c3ccc(C(=O)NC(CCC(=O)O)C(=O)O)cc3)ccc2n1 (stereo not given) | 5 µM
NC(=O)CN(Cc1ccc2nc(N)nc(O)c2c1)c1ccc(C(=O)NC(CCC(=O)O)C(=O)O)cc1 (stereo not given) | 87 µM
Nc1nc(O)c2cc(CN(CCCO)c3ccc(C(=O)NC(CCC(=O)O)C(=O)O)cc3)ccc2n1 (stereo not given) | 54 µM
Nc1nc(O)c2cc(CNc3ccc(C(=O)NC(CCC(=O)O)C(=O)O)cc3)ccc2n1 (stereo not given) [DIDEAZAFOLATE] | 5 µM
N#CCCCN(Cc1ccc2nc(N)nc(O)c2c1)c1ccc(C(=O)NC(CCC(=O)O)C(=O)O)cc1 (stereo not given) | > 300 µM
Nc1nc(O)c2cc(CN(CCF)c3ccc(C(=O)NC(CCC(=O)O)C(=O)O)cc3)ccc2n1 (stereo not given) | 16 µM
